Series [1] in a line: Bulk powder density (Example 2). Format: physicochemical.
The nature of series [2]: BET nitrogen adsorption specific surface area (Example 2). The class given is physicochemical. As for the experimental part:
Data on specific surface areas required for IGC studies were determined by BET nitrogen adsorption using a Surface Area Analyzer Coulter SA 3100 (Coulter Corp., Miami, Fla., USA). Samples were placed in glass sample holders and out-gassed with helium (purity >99.999%) at 40° C. for 16 hours before analysis. Nitrogen (purity >99.999%) was used as adsorbate and BET surface area was recorded as specific surface area of the samples. All measurements were performed in triplicate using the same batch of each material.

A short description of series [3]: Particle size by AeroSizer time-of-flight (Example 1). The class given is physicochemical. As to conditions: aerodynamic-equivalent volume mean diameter. As for the experimental part: (§1) PSD measurements were performed using firstly, AEROSIZER® time-of-flight instrument equipped with AERO-[…]® (TSI Inc., Minneapolis. USA) and secondly, laser diffraction sensor Helos with dry-powder air-dispersion system Rodos (Sympatec GmbH. Germany). The volume mean particle diameter, VMD, was obtained for both instruments using software options. In the general case of non-spherical particles, these instruments cannot provide the exact value of VMD, however, the time-of-flight technique gives an aerodynamic-equivalent particle diameter, whereas the laser diffraction method provides the geometric projection-equivalent diameter. These diameters afford the complementary information on PSD and therefore can be used for comparative size analysis.

Series [4] is described as follows: Triboelectrification in turbula mixer, charge and adhesion. The class given is physicochemical. As to conditions: for Q (nCg^−1) After mixing: 5 minutes at 30 rpm. As for the experimental part:
(§2) Triboelectrification was undertaken against a stainless steel contact surface using either a turbula mixer or a cyclone separator. Triboelectrification in a turbula mixer (Glen Creston, UK) was carried out by agitating a powder sample for 5 minutes at 30 rpm in a 100 ml stainless steel vessel at ambient temperature and relative humidity. A sample was poured in a reproducible manner into a Faraday well connected to an electrometer (Keithley 610, Keithley Instruments, Reading, UK). Charge and mass of sample was then recorded to give specific charge before and after triboelectrification. % w/w adhesion to the inner surface of the mixing vessel was calculated from the original mass of sample and the mass of sample poured into the Faraday well. During triboelectrification in a cyclone separator, a powder was fed from a steel vibratory table into a venturi funnel. Compressed air (velocity 8 m/s. relative humidity below 10%, ambient temperature) was used to convey the powder from the venturi along a horizontal pipe into the cyclone separator. The Faraday well and force compensation load cell was fitted at the base of the cyclone and used to collect charged particles. Final specific charge was recorded for non-adhered powder residing in the Faraday well and, where possible, powder adhering to the cyclone wall was dislodged by a stream of air and its charge and mass recorded. In both cases, the results were obtained from triplicate measurements.

A short description of series [5]: Particle size by Helos/Rodos laser diffraction (Example 1). The class given is physicochemical. As to conditions: geometric projection-equivalent volume mean diameter. As for the experimental part: as §1
Series [6] in a line: Inverse gas chromatography of SX powders (Example 2). The note with it: for KA: acidity parameter; for γs^D (mJ/m^2): column at 40° C.; for −ΔGA^SP (kJ/mol) Acetone: probe acetone; for −ΔGA^SP (kJ/mol) Chloroform: probe chloroform; for −ΔGA^SP (kJ/mol) Diethyl ether: probe diethyl ether; for −ΔGA^SP (kJ/mol) Ethyl acetate: probe ethyl acetate; for −ΔGA^SP (kJ/mol) Tetrahydrofuran: probe tetrahydrofuran.

Series [7] can be described thus: Inverse gas chromatography surface energy (Example 1). The class given is physicochemical. As to conditions: 303K; for ΔGA (kJ/mol) Diethyl ether: probe diethyl ether. An excerpt:
For TBS and FHBr powders, IGC was done using a Hewlett Packard Series 6890 instrument which was specifically modified for IGC measurements by Surface Measurement Systems Ltd (Manchester, UK). The IGC method is described in detail by Tong et al. 2001. (Tong H. H. Y., B. Y. Shekunov, P. York, A. H. L. Chow, 2001. Pharm. Res. 18, 852.) Triplicate measurements in separate packed columns were made. […] The γS^D and ΔGA values were obtained at 303K.

Series [8] can be described thus: Laser diffraction particle size analysis HELOS/RODOS (Example 2). Format: physicochemical. As to conditions: for mean particle size d4,3: LD technique. As for the experimental part:
The instrument consisted of laser diffraction sensor HELOS and dry-powder air-dispersion system RODOS (Sympatec GmbH. Germany) with WINDOX OS computer interface. The dispersion process was controlled by means of adjusting pressure of the compressed air flow between 0.5 and 5 bar. […] All measurements were performed in triplicate. The particle shape factor, f, was calculated as f=Sv/Sv*. where Sv is the experimental specific surface area and Sv* is the specific surface area determined using the LD instrument assuming the particle sphericity.

Series [9] can be described thus: Triboelectrification in cyclone separator, charge and adhesion. The class given is physicochemical. As for the experimental part: as §2
Series [10] in a line: Aerosol analysis at 60 LPM, Turbospin (Example 11). As for the experimental part: The aerosol performance of a SEDS™ processed sample of bromocriptine mesylate was assessed in a unit-dose passive inhaler device (Turbospin PH & T (Italy)), at a peak inspiratory flow rate (PFIR) of 28.3 LPM and 60 LPM.

Where a name gives a salt, the structure may show the parent alone.

As for `OCc1cc(C(O)CNCCCCCCOCCCCc2ccccc2)ccc1O` (stereo not drawn) [SX Micronised, salmeterol xinafoate, reference compound], the bulk powder density in series [1] (listed as M-SX) came out at 0.5 g/mL. Besides, in series [2] (listed as M-SX), the “SV (specific surface area)” value came out at 9.243. For the same compound, the “VMD (μm) (Time of flight)” value in [3] came to 1.2 μm. In addition, in series [4] (listed as M-SX), the “Q (nCg^−1) After mixing” value is on record as −42.6 nCg^−1; the “AD (% w/w), fraction of adhered material” value came out at 27 % w/w; the “Q (nCg^−1) Before mixing” value was −12.1 nCg^−1. Moreover, the “VMD (μm) (laser diffraction)” value in series [5] is recorded as 1.69 μm. Further, in series [6] (listed as M-SX), the KA stood at 0.172, the “γs^D (mJ/m^2)” value is on record as 38.285 mJ/m^2, the “−ΔGA^SP (kJ/mol) Acetone” value is 4.560 kJ/mol and the “−ΔGA^SP (kJ/mol) Chloroform” value worked out at 0.810 kJ/mol. Moreover, in [6] (listed as M-SX), the “−ΔGA^SP (kJ/mol) Diethyl ether” value is 2.774 kJ/mol, the “−ΔGA^SP (kJ/mol) Ethyl acetate” value amounted to 3.995 kJ/mol and the “−ΔGA^SP (kJ/mol) Tetrahydrofuran” value amounted to 3.609 kJ/mol. In addition, in [7], the “γs^D (mJ/m^2)” value is 40.49 mJ/m^2 and the “ΔGA (kJ/mol) Diethyl ether” value is reported as 14.20 kJ/mol. For the same compound, the “ΔGA (kJ/mol) Acetone” value in [7] (probe acetone) was determined as 15.24 kJ/mol. Besides, in series [7] (probe chloroform), the “ΔGA (kJ/mol) Chloroform” value is 14.78 kJ/mol. Moreover, in series [7] (probe ethyl acetate), the “ΔGA (kJ/mol) Ethyl acetate” value is 17.46 kJ/mol. In series [8] (listed as M-SX), the “mean particle size d4,3” value came to 1.8 μm and the “f (particle shape factor, f=Sv/Sv*)” value is 2.80. In [9] (listed as M-SX), the “AD (% w/w), fraction of adhered material” value worked out at 16.7 % w/w; the “Q (nCg^−1) After mixing” value is recorded as −49.7 nCg^−1; the “Q (nCg^−1) Before mixing” value is listed as −48.4 nCg^−1.
On to `CC(C)C[C@H]1C(=O)N2CCC[C@H]2[C@]2(O)O[C@](NC(=O)[C@@H]3C=C4c5cccc6[nH]c(Br)c(c56)C[C@H]4N(C)C3)(C(C)C)C(=O)N12` [SEDS bromocriptine, bromocriptine mesylate], for which, in series [10], the “aerodynamic diameter of aerosol particles” value worked out at 4.2 μm.
Take `OCc1cc(C(O)CNCCCCCCOCCCCc2ccccc2)ccc1O` (stereo not drawn) [SX SEDS, salmeterol xinafoate]: the bulk powder density entry in series [1] (listed as S-SX) was “about 0.1 g/cm^3”. Moreover, the “SV (specific surface area)” value in series [2] (listed as S-SX) is given as 7.040. The “VMD (μm) (Time of flight)” value in series [3] came out at 1.6 μm. Besides, in series [4] (listed as S-SX), the “Q (nCg^−1) After mixing” value is listed as −0.17 nCg^−1; the “AD (% w/w), fraction of adhered material” value worked out at 1.5 % w/w; the “Q (nCg^−1) Before mixing” value was −0.52 nCg^−1. Also, the “VMD (μm) (laser diffraction)” value in [5] amounted to 3.56 μm. For the same compound, in [6], the “magnitude of γS^D smaller than for M-SX and G-SX” value worked out at 15%. In addition, in series [6] (listed as S-SX), the KA is 0.110, the “γs^D (mJ/m^2)” value came out at 32.476 mJ/m^2, the “−ΔGA^SP (kJ/mol) Acetone” value worked out at 3.797 kJ/mol and the “−ΔGA^SP (kJ/mol) Chloroform” value stood at 0.153 kJ/mol. Also, in [6] (listed as S-SX), the “−ΔGA^SP (kJ/mol) Diethyl ether” value was determined as 1.488 kJ/mol, the “−ΔGA^SP (kJ/mol) Ethyl acetate” value was 2.705 kJ/mol and the “−ΔGA^SP (kJ/mol) Tetrahydrofuran” value was determined as 2.446 kJ/mol. The “−ΔGA^SP (kJ/mol) Dichloromethane” value in series [6] (probe dichloromethane) came out at 2.808 kJ/mol. Moreover, in [7], the “γs^D (mJ/m^2)” value is 34.55 mJ/m^2 and the “ΔGA (kJ/mol) Diethyl ether” value is given as 12.65 kJ/mol. Also, in series [8] (listed as S-SX), the “mean particle size d4,3” value stood at 3.5 μm and the “f (particle shape factor, f=Sv/Sv*)” value was 3.78. In [9] (listed as S-SX), the “AD (% w/w), fraction of adhered material” value was 5.5 % w/w; the “Q (nCg^−1) After mixing” value is −34.6 nCg^−1; the “Q (nCg^−1) Before mixing” value was found to be 4.9 nCg^−1.
